Reference: US20180028712A1, “SKIN-REGENERATING MATERIAL COMPRISING SYNERGISTIC COMBINATION OF METAL OXIDES” (ARGAMAN TECHNOLOGIES LTD., priority 2015, published 2018)

How the values were obtained:
[1] = test system: Human Foreskin Fibroblasts (HFF); conditions: 24 hours following the plate scratching
Method: (§1) For the treatments, the saturated solutions were diluted 1:10, 1:100, and 1:500 in the growth medium in a supernatant.
HFF cells were thawed and passaged at least once prior to assay performance.

[2] = test system: HFF cell line; assay: Proliferation assay (Stage II), Alamar Blue viability of HFF cells
Method: as §1
HFF cells were thawed and passaged at least once prior to assay performance. Exponentially growing culture was collected, centrifuged, counted and seeded in 96-well tissue culture plate at a density of 5000 cells/well.
The plate was incubated overnight at 37° C., humidified 5% CO2/air., to enable cells adherence to the wells.
The next day, the growth medium was replaced with the test item solutions in 5% and 1% FBS and vehicle control solution to achieve the final concentrations as designated in the following plate plan (final volume of 200 μl)
Plates were incubated for 24 hours at 37° C., humidified 5% CO2/air.
Following 24 hours, the medium was replaced with fresh growth medium containing 10% of Alamar Blue.

## [Ag+].[Ag+].[Ag+].[Ag+].[O-2].[O-2].[O-2].[O-2] [TST, tetrasilver tetroxide]
[1]; diluted 1:100, compared to control group
  observation of scratched monolayer (proliferation along the scratch): many proliferation centers along the scratch
[1]; saturated solution diluted 1:10
  observation of scratched monolayer (cytotoxicity): cytotoxic
[2]; HFF cells, 24 hours, summary of Table 1
  cell proliferation / cytotoxicity result in words: cytotoxic
[2]; percent viability on HFF cell line, 24 hours incubation and 4 hours with Alamar Blue, control = 100
  Number of cells (normalized): 85
